The source of these data is ChEMBL document CHEMBL1201862, “PubChem BioAssay data set” (2004).

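Cultured in 96-well plates, cells were exposed to test compound for 48 hours across five concentrations. GI50: concentration for 50% inhibition of growth.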 The source made the active and inactive calls. No stated cut-off is given here; in the data, active = GI50 up to about 1.1 µM and inactive = higher.

Holding throughout (assay): inhibition of tumour cell growth, NCI panel, 48 h
The subject of assay [1] is EKVX.
In assay [2] the test system is HCT-15.
Assay [3] concerns IGROV-1.
Assay [4] has as its system K562.
Assay [5] relates to M14.
Assay [6] concerns MOLT-4.
Assay [7] concerns NCI-H23.
For assay [8], the system named is OVCAR-3.
In assay [9] the test system is OVCAR-4.
Assay [10] relates to SF-268.
Assay [11] deals with SK-MEL-28.
The subject of assay [12] is SK-MEL-2.
Assay [13] has as its system SK-OV-3.
The test system of assay [14] is SW-620.
Assay [15] relates to U-251.
Assay [16] relates to UACC-257.
In assay [17] the test system is HL-60.
Assay [18] relates to KM12.

For `Cc1cccc(C(=O)c2cccc3ccccc23)c1C(=O)O`, the GI50 in assay [1] was > 100 µM (inactive); in [2], more than 100 µM; in assay [3], > 100 µM (inactive); in assay [4] it was > 100 µM (inactive); in assay [5], > 100 µM (inactive); in [6] it was > 100 µM (inactive). In addition, the GI50 in assay [7], in assay [8], in assay [9], in [10], in assay [11] and in [12] was > 100 µM (inactive) throughout. Moreover, the GI50 is 39.1 µM (inactive) in assay [13], > 100 µM (inactive) in assay [14], > 100 µM (inactive) in [15] and > 100 µM (inactive) in assay [16].

For the molecule `Nc1nc(N)c2nc(-c3ccco3)cnc2n1`, the GI50 was 18.3 µM (inactive) in assay [1]; more than 100 µM in [2]; 28.3 µM (inactive) in [17]; 43.1 µM (inactive) in [3]; 33.7 µM (inactive) in [4]; 93.5 µM (inactive) in assay [18]. For the same molecule, the GI50 in assay [5] is 50 µM (inactive); in [6], 44.5 µM (inactive); in assay [7], 75 µM (inactive); in assay [8], 56.9 µM (inactive); in assay [10], > 100 µM (inactive); in assay [11], 92 µM (inactive). For the same molecule, the results for the GI50 in [13], in [15] and in assay [16] were 76.9 µM (inactive), 34.1 µM (inactive) and 92.7 µM (inactive), respectively.

`C=CCc1cc(OC)c2c(c1)C(OC(C)=O)CC(c1ccc(OC)c(OC)c1)O2` (stereo not given): the GI50 is > 100 µM (inactive) in assay [1]; more than 100 µM in assay [2]; > 100 µM (inactive) in assay [17]; > 100 µM (inactive) in assay [3]; > 100 µM (inactive) in assay [4]; > 100 µM (inactive) in assay [18]. Moreover, the GI50 in assay [5] is > 100 µM (inactive); in [6] it was > 100 µM (inactive); in assay [7] it was 46.7 µM (inactive); in assay [8] it was > 100 µM (inactive); in [9], > 100 µM (inactive); in assay [10], > 100 µM (inactive). The GI50 in [11] was > 100 µM (inactive); in assay [13] it was > 100 µM (inactive); in assay [14], > 100 µM (inactive); in assay [15] it was 60.5 µM (inactive); in assay [16], > 100 µM (inactive).

In the case of `COc1ccc(/C=C/c2cc(OC)c(OCc3ccccc3)c(OC)c2)cc1`, the GI50 in assay [1] was > 100 µM (inactive); in assay [3] it was > 100 µM (inactive); in assay [4], > 100 µM (inactive); in assay [18], > 100 µM (inactive); in assay [5], 87.5 µM (inactive); in [6] it was 29 µM (inactive). In addition, the GI50 in assay [7] is 64 µM (inactive); in assay [8], > 100 µM (inactive); in assay [9], 23.6 µM (inactive); in assay [10], > 100 µM (inactive); in assay [11], 56.6 µM (inactive); in assay [12], > 100 µM (inactive). The GI50 is > 100 µM (inactive) in assay [13], > 100 µM (inactive) in assay [14], > 100 µM (inactive) in [15] and 99.1 µM (inactive) in [16].

Regarding `O=C(O)[C@@H](NS(=O)(=O)c1ccc(F)cc1)c1ccccc1`, the GI50 in assay [1] was > 100 µM (inactive); in [2], more than 100 µM; in [3] it was > 100 µM (inactive); in [4], > 100 µM (inactive); in assay [5] it was > 100 µM (inactive); in assay [6], > 100 µM (inactive). For the same molecule, the GI50 in assay [7], in assay [8], in assay [9], in assay [10], in assay [11] and in assay [12] was > 100 µM (inactive) throughout. Also, the GI50 in assay [13], in assay [14], in assay [15] and in [16] was > 100 µM (inactive) each time.
